pKd: −log10 of the molar value.

For one assay, the target named is T1, BRPF1B (Homo sapiens, UniProt P55201).
T1 construct: purchased DiscoveRx (BROMOscan platform); host or cells: E. coli host derived from BL21 (T7 phage)
T1 sequence (P55201 628-732 limits assumed): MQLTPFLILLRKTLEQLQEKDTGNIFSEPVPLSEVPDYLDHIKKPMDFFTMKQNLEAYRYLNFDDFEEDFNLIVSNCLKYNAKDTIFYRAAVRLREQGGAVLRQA
Briefly: BROMOscan bromodomain competitive binding assay (DiscoveRx), BRPF1B. The conditions noted are these: BROMOscan platform, n = 2 unless cell says n = 4. Here is the method: (§1) Compounds were tested using the commercially available BROMOscan™ Platform (DiscoveRx): http://www.discoverx.com/technologies-platforms/competitive-binding-technology/bromoscan-technology-platform/bromoscan-assay-process.
(§2) Bromodomain assays. T7 phage strains displaying bromodomains were grown in parallel in 24-well blocks in an E. coli host derived from the BL21 strain. E. coli were grown to log-phase and infected with T7 phage from a frozen stock (multiplicity of infection=0.4) and incubated with shaking at 32° C. until lysis (90-150 minutes). The lysates were centrifuged (5,000×g) and filtered (0.2 μm) to remove cell debris. […] The liganded beads were blocked with excess biotin and washed with blocking buffer (SeaBlock (Pierce), 1% BSA, 0.05% Tween 20, 1 mM DTT) to remove unbound ligand and to reduce non-specific phage binding. […] Test compounds were prepared as 1000× stocks in 100% DMSO and subsequently diluted 1:10 in monoethylene glycol (MEG) to create stocks at 100× the screening concentration (resulting stock solution is 10% DMSO/90% MEG). The compounds were then diluted directly into the assays such that the final concentration of DMSO and MEG were 0.1% and 0.9%, respectively. All reactions were performed in polystyrene 96-well plates in a final volume of 0.135 ml. […] The bromodomain concentration in the eluates was measured by qPCR.
(§3) An 11-point 3-fold serial dilution of each test compound was prepared in 100% DMSO at 1000× final test concentration. This serial is then diluted to 100× in ethylene glycol and subsequently diluted to 1× in the assay (final DMSO concentration=0.1%, Ethylene glycol concentration=0.9%). Most Kds were determined using a compound top concentration=10,000 nM.
(§4) Binding constants (Kds) were calculated with a standard dose-response curve using the Hill equation: […]
(§5) The Hill Slope was set to −1. Curves were fitted using a non-linear least square fit with the Levenberg-Marquardt algorithm.
(§6) BROMOscan™ uses the same assay technology as KINOMEscan™. For a more detailed description of this assay technology, see Fabian et al.12

For the next assay, the target named is T2, BRD1 (Homo sapiens, UniProt O95696).
T2 construct: purchased DiscoveRx (BROMOscan platform); host or cells: E. coli host derived from BL21 (T7 phage)
T2 sequence (O95696 562-666 limits assumed): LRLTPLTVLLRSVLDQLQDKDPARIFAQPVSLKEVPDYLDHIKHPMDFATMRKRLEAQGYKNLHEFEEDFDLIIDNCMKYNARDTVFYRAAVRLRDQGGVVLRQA
The assay is described as follows: BROMOscan bromodomain competitive binding assay (DiscoveRx), BRD1. The conditions noted are these: BROMOscan platform, n = 2. Here is the method:
as §1, §2, §3, §4, §5, §6

Another assay has as its target T3, BRPF3 (Homo sapiens, UniProt Q9ULD4).
T3 construct: purchased DiscoveRx (BROMOscan platform); host or cells: E. coli host derived from BL21 (T7 phage)
T3 sequence (Q9ULD4 589-693 limits assumed): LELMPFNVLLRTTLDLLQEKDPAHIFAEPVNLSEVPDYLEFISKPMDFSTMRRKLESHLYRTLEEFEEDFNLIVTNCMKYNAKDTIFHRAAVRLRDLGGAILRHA
The assay is described as follows: BROMOscan bromodomain competitive binding assay (DiscoveRx), BRPF3. The conditions noted are these: BROMOscan platform, n = 2. The method, then: as §1, §2, §3, §4, §5, §6

For `Cn1c(=O)ccc2cc(NS(=O)(=O)c3ccccc3)ccc21` [Compound 1, N-(1-methyl-2-oxo-1,2-dihydroquinolin-6-yl)benzenesulfonamide], the pKd on BRPF1B is 7.19; at BRD1, 5.85; at BRPF3, 5.12.
In the case of `Cn1c(=O)ccc2cc(NS(=O)(=O)c3ccccc3C#N)ccc21` [Compound 2, 2-cyano-N-(1-methyl-2-oxo-1,2-dihydroquinolin-6-yl)benzenesulfonamide], the pKd at BRPF1B is 6.37; on BRD1 it was 5.77.
`Cn1c(=O)ccc2cc(NS(=O)(=O)c3cccc(C#N)c3)ccc21` [Compound 3, 3-cyano-N-(1-methyl-2-oxo-1,2-dihydroquinolin-6-yl)benzenesulfonamide]: the pKd at BRPF1B is 7.25; on BRD1 it was 6.57.
For `Cn1c(=O)ccc2cc(NS(=O)(=O)c3ccc(Cl)c(Cl)c3)ccc21` [Compound 9, 3,4-dichloro-N-(1-methyl-2-oxo-1,2-dihydroquinolin-6-yl)benzenesulfonamide], the negative logarithm of the Kd (pKd) was 7.36 on BRPF1B and 6.64 on BRD1.
Regarding `COc1cc2c(ccc(=O)n2C)cc1NS(=O)(=O)c1ccccc1` [Compound 10, N-(7-methoxy-1-methyl-2-oxo-1,2-dihydroquinolin-6-yl)benzenesulfonamide], the figures for the pKd at BRPF1B, at BRD1 and at BRPF3 were 7.54, 6.42 and 5.66, respectively.
In the case of `CCOc1cc2c(ccc(=O)n2C)cc1NS(=O)(=O)c1ccc(C#N)cc1` [Compound 13, 4-cyano-N-(7-ethoxy-1-methyl-2-oxo-1,2-dihydroquinolin-6-yl)benzenesulfonamide], at BRPF1B, the pKd was 7.26.
The same measure, in the same setting: the same measure for `CC(C)Oc1cc2c(ccc(=O)n2C)cc1NS(=O)(=O)c1ccc(C#N)cc1` [Compound 14, 4-cyano-N-(7-isopropoxy-1-methyl-2-oxo-1,2-dihydroquinolin-6-yl)benzenesulfonamide]: 7.41.
Consider `COc1c(NS(=O)(=O)c2ccc(C#N)cc2)ccc2c1ccc(=O)n2C` [Compound 16, 4-cyano-N-(5-methoxy-1-methyl-2-oxo-1,2-dihydroquinolin-6-yl)benzenesulfonamide], for which the pKd at BRPF1B was 7.34; on BRD1 it was 6.68.
On the same counts, the results for `Cn1c(=O)ccc2c(Br)c(NS(=O)(=O)c3ccc(C#N)cc3)ccc21` [Compound 18, N-(5-bromo-1-methyl-2-oxo-1,2-dihydroquinolin-6-yl)-4-cyanobenzenesulfonamide] are 6.68 and 6.08.
On to `COc1cc2c(cc1NS(=O)(=O)c1ccccc1)cc(C)c(=O)n2C` [Compound 21, N-(7-methoxy-1,3-dimethyl-2-oxo-1,2-dihydroquinolin-6-yl)benzenesulfonamide], for which the pKd was 7.77 at BRPF1B, 6.72 at BRD1 and 6.23 at BRPF3.
As for `COc1cc2c(cc1NS(=O)(=O)c1ccc(C#N)cc1)cc(C)c(=O)n2C` [Compound 22, 4-cyano-N-(7-methoxy-1,3-dimethyl-2-oxo-1,2-dihydroquinolin-6-yl)benzenesulfonamide], the pKd at BRPF1B was 7.82; at BRD1, 7.00; at BRPF3 it was 6.55.
In the case of `COc1cc2c(cc1NS(=O)(=O)c1ccc(N)cc1)cc(C)c(=O)n2C` [Compound 25, 4-amino-N-(7-methoxy-1,3-dimethyl-2-oxo-1,2-dihydroquinolin-6-yl)benzenesulfonamide], the pKd at BRPF1B is 6.38.
Take `Cc1cc(=O)n(C)c2ccc(NS(=O)(=O)c3ccc(C#N)cc3)cc12` [Compound 30, 4-cyano-N-(1,4-dimethyl-2-oxo-1,2-dihydroquinolin-6-yl)benzenesulfonamide]: the pKd at BRPF1B was 7.62; on BRD1, 6.82.
On the same counts, the results for `CN(c1ccc2c(ccc(=O)n2C)c1)S(=O)(=O)c1ccc(C#N)cc1` [Compound 34, 4-cyano-N-methyl-N-(1-methyl-2-oxo-1,2-dihydroquinolin-6-yl)benzenesulfonamide] are 6.04 and 5.17.
Turning to `CCn1c(=O)ccc2cc(NS(=O)(=O)c3ccc(C#N)cc3)ccc21` [Compound 35, 4-cyano-N-(1-ethyl-2-oxo-1,2-dihydroquinolin-6-yl)benzenesulfonamide], the pKd on BRPF1B is 7.33; on BRD1 it was 6.41.
On the same counts, the results for `Cn1c(=O)ccc2cc(S(=O)(=O)Nc3ccc(C#N)cc3)ccc21` [Compound 38, N-(4-cyanophenyl)-1-methyl-2-oxo-1,2-dihydroquinoline-6-sulfonamide] are 7.00 and 6.82.
`CCc1cc2cc(NS(=O)(=O)c3ccc(C#N)cc3OC)ccc2n(C)c1=O` [Compound 45, 4-cyano-N-(3-ethyl-1-methyl-2-oxo-1,2-dihydroquinolin-6-yl)-2-methoxybenzenesulfonamide]: at BRPF1B, the pKd is 7.18.
Same read-out and setting: as for `COc1cc(C#N)ccc1S(=O)(=O)Nc1cc(F)c2c(c1)cc(C)c(=O)n2C` [Compound 49, 4-cyano-N-(8-fluoro-1,3-dimethyl-2-oxo-1,2-dihydroquinolin-6-yl)-2-methoxybenzenesulfonamide], the figure is 8.00.
Same read-out and setting: as for `COc1cc2c(cc1NS(=O)(=O)c1ccc(C#N)cc1)c(C)c(C)c(=O)n2C` [Compound 50, 4-cyano-N-(7-methoxy-1,3,4-trimethyl-2-oxo-1,2-dihydroquinolin-6-yl)benzenesulfonamide], the figure is 6.85; as for `Cn1c(=O)ccc2cc(NS(C)(=O)=O)ccc21` [Compound 51, N-(1-methyl-2-oxo-1,2-dihydroquinolin-6-yl)methanesulfonamide], 5.66; as for `CCS(=O)(=O)Nc1ccc2c(ccc(=O)n2C)c1` [Compound 52, N-(1-methyl-2-oxo-1,2-dihydroquinolin-6-yl)ethanesulfonamide], 5.92.
Same read-out and setting: as for `CC(C)S(=O)(=O)Nc1ccc2c(ccc(=O)n2C)c1` [Compound 53, N-(1-methyl-2-oxo-1,2-dihydroquinolin-6-yl)propane-2-sulfonamide], the figure is 5.96; as for `Cn1c(=O)ccc2cc(NS(=O)(=O)C3CC3)ccc21` [Compound 54, N-(1-methyl-2-oxo-1,2-dihydroquinolin-6-yl)cyclopropanesulfonamide], 6.28; as for `Cn1c(=O)ccc2cc(NS(=O)(=O)C3CCCCC3)ccc21` [Compound 55, N-(1-methyl-2-oxo-1,2-dihydroquinolin-6-yl)cyclohexanesulfonamide], 6.42.
Take `Cc1cc2cc(NS(=O)(=O)C3CCCCC3)ccc2n(C)c1=O` [Compound 56, N-(1,3-dimethyl-2-oxo-1,2-dihydroquinolin-6-yl)cyclohexanesulfonamide]: the pKd at BRPF1B was 7.51.
On the same count and under the same terms, as for `COc1cc(C#N)ccc1S(=O)(=O)N(C)c1ccc2c(c1)cc(C)c(=O)n2C` [Compound 59, 4-cyano-N-(1,3-dimethyl-2-oxo-1,2-dihydroquinolin-6-yl)-2-methoxy-N-methylbenzenesulfonamide], the figure is 7.28; as for `COc1cc(C(N)=O)ccc1S(=O)(=O)Nc1ccc2c(c1)cc(C)c(=O)n2C` [Compound 62, 4-(N-(1,3-dimethyl-2-oxo-1,2-dihydroquinolin-6-yl)sulfamoyl)-3-methoxybenzamide], 8.30.
On the same count and under the same terms, the same measure for `COc1cc2c(cc1NS(=O)(=O)c1ccccc1OC(F)(F)F)cc(C)c(=O)n2C` [Compound 67, N-(7-methoxy-1,3-dimethyl-2-oxo-1,2-dihydroquinolin-6-yl)-2-(trifluoromethoxy)benzenesulfonamide]: 7.32.
As to `COc1ccccc1S(=O)(=O)Nc1ccc2c(c1)cc(C)c(=O)n2C` [Compound P-001, N-(1,3-dimethyl-2-oxo-1,2-dihydroquinolin-6-yl)-2-methoxybenzenesulfonamide, reference compound], the pKd was 8.05 on BRPF1B and 6.89 on BRD1.

The record behind these values is patent US20170291875A1, “QUINOLONES AS INHIBITORS OF CLASS IV BROMODOMAIN PROTEINS” (UCL BUSINESS PLC, priority 2014, published 2017).
